Measurements from patent US20020151581A1, “Glucose and lipid lowering compounds” (priority 1998, published 2002).
Where two headings read alike, the source gives them in different places. Marks after values point to notes of the source that are not given here.

Columns and labels:
[1] = test system: Candida rugosa lipase; test: Inhibition of Candida rugosa lipase toward emulsified triolein substrate PC/PI; type: biochemical
Protocol: Recombinant hormone-sensitive lipase protein isolated from a bacterial expression vector was pre-incubated with a compound of the invention (e.g., 100 μM) prior to the addition of substrate, emulsified triolein phosphatidylcholine/phosphatidylinositol (PC/PI), to initiate the reaction. At various time points, aliquots of the reaction were taken, and the level of glycerol used as an index of enzyme activity. Pharmacological specificity is determined by incubating test compound with other mammalian and non-mammalian lipase enzyme systems to assess inhibition of activity. The assay was conducted using triolein concentrations from 42 μM to 835 μM.

[2] = test system: C57/B16J lean mice; test: Circulating free fatty acid levels in overnight-fasted normal mice; type: in vivo; conditions: 50 mg/kg daily intraperitoneal for 2 weeks
Protocol: (§1) Male, C57/B16J lean mice were purchased from Jackson Laboratories, Bar Harbor, Me. Animals were housed and maintained in accordance with NIH guidelines and had free access to water and food ad libitum. Test compounds of the present invention were suspended in 0.25% methylcellulose (w/v in distilled water) and stored at −20° C. in single use aliquots. Animals received a daily dose via the intraperitoneal route of administration for 2 weeks. After the last dose, animals were fasted overnight. On the following morning, a 250 μl blood sample was drawn via the retro-orbital sinus into a tube containing an EDTA-saline solution and centrifuged at 1,200×g for 15 min. The plasma fraction was analyzed for non-esterified free fatty acid content (NEFA) using the NEFA C diagnostic kit (WAKO Chemicals USA, Richmond, Va.), and glycerol with the triglyceride GPO-Trinder diagnostic kit (Sigma) modified for use on a BM Hitachi 911 clinical chemistry analyzer. P-values from a student's t-test were calculated using the Prizm software data analysis program (Graphpad, Sorrento Calif.).

[3] = test system: KK/Ay mice; test: Effects in fasted KK/Ay mice (plasma lipids and glucose); type: in vivo; conditions: daily intraperitoneal for 2 weeks
Protocol: as §1
Male, KK/Ay mice were purchased from Clea Japan USA, Pennington, N.J. At 4 months of age, animals received daily intraperitoneal administration of 2α-benzoyloxy-5,7,8αH-eudesma-4(15), 11(13)-dien-8,12-olide for 2 weeks. As described in Example 10, fasting plasma NEFA values were obtained. In addition, cholesterol and triglycerides were measured using BM reagent assay kits on a BM Hitachi 911 clinical chemistry analyzer. […] Plasma glucose levels were measured using a Boehringer Mannheim reagent assay kits on a Boehringer Mannheim Hitachi 911 clinical chemistry w analyzer.

[4] = test system: rabbits; conditions: cited from earlier work

C=C1C(=O)O[C@@H]2C[C@@]3(C)C[C@@H](OC(=O)c4ccccc4)CC(=C)[C@@H]3C[C@H]12 [2α-benzoyloxy-5,7,8αH-eudesma-4(15),11(13)-dien-8,12-olide]
inhibition of Candida rugosa lipase (in words) ([1]; emulsified triolein substrate PC/PI): did not inhibit enzyme activity | % Inhibition (Candida lipase) ([1]; triolein substrate 42 μM): 40% | Candida Lipase + test compound (enzyme activity) ([1]; triolein substrate 42 μM): 3.21 | % Inhibition (Candida lipase) ([1]; triolein substrate 83.5 μM): −12% | Candida Lipase + test compound (enzyme activity) ([1]; triolein substrate 83.5 μM): 11.59 | % Inhibition (Candida lipase) ([1]; triolein substrate 167 μM): 6.3% | Candida Lipase + test compound (enzyme activity) ([1]; triolein substrate 167 μM): 14.14 | % Inhibition (Candida lipase) ([1]; triolein substrate 334 μM): 3.6% | Candida Lipase + test compound (enzyme activity) ([1]; triolein substrate 334 μM): 22.68 | % Inhibition (Candida lipase) ([1]; triolein substrate 501 μM): −1.7% | Candida Lipase + test compound (enzyme activity) ([1]; triolein substrate 501 μM): 60.13 | % Inhibition (Candida lipase) ([1]; triolein substrate 668 μM): −1.1% | Candida Lipase + test compound (enzyme activity) ([1]; triolein substrate 668 μM): 93.59 | % Inhibition (Candida lipase) ([1]; triolein substrate 835 μM): 1.0% | Candida Lipase + test compound (enzyme activity) ([1]; triolein substrate 835 μM): 89.71 | NEFA (fasting plasma) ([2]; vehicle 1.108): 0.808 mM | Glycerol (fasting plasma) ([2]; vehicle 36): 28^b mg/dl | % reduction NEFA ([2]; vs vehicle): 27% | fasting plasma NEFA [3]: significant reductions | plasma cholesterol [3]: significant reductions | plasma glycerol [3]: significant reductions | plasma triglycerides [3]: significant reductions | fasting plasma glucose level ([3]; control mice 184±24 mg/dL, p <0.01): 90 ± 29 mg/dL

C=C1C(=O)O[C@@H]2C[C@@]3(C)CCC[C@H](C)C3=C[C@H]12 [alantolactone, 4,7,8αH-eudesma-5(6), 11(13)-dien-8,12-olide]
effect on blood glucose ([4]; moderate dose): induce hypoglycemia | effect on hyperglycemia induced by food ([4]; rabbit, in vivo): inhibit hyperglycemia induced by food | effect on blood glucose ([4]; rabbits, high dose): induce hyperglycemia
